Measured values reported in paper PMC5459853, “Cathepsin S inhibition combines control of systemic and peripheral pathomechanisms of autoimmune tissue injury” (Scientific Reports, 2017).
pIC50: −log10 of the molar value.

Legend:
[1] = extensive screening studies in mice, rats, monkeys and humans preceding clinical trial NCT01701985; cited from earlier work
Human Cat-V = Human Cat-V (Homo sapiens, UniProt O60911); assay: Enzymatic isoform-selectivity assay, Cat-V; assay type: biochemical; conditions: read-out: apparent IC50, Cat V
Method: (§1) RO5459072 was provided by F. Hoffmann-La Roche, Ltd., Basel, Switzerland. It is a competitive inhibitor of the active site of Cat-S and its nitrile function allows covalent reversible inhibition of Cat-S. The synthesis of RO5459072 has been described in WO 2010121918 and WO 2013068434. Recombinant cathepsins were produced in-house or were purchased from commercial vendors. Initial enzymatic assays to determine isoform-selectivity in vitro were performed as previously described, [23]. […] For this the Cat-S-dependent hydrolysis of the fluorogenic substrate Z-Phe-Arg-AMC (Sigma Aldrich) was followed at various inhibitor concentrations. The active fraction of Cat-S was detemined as 70% with a HPLC assay measuring modification of Cat-S with the covalent inhibitor LHVS. The buffer (100 mM potassium phosphate, 50 mM NaCl, 5 mM EDTA, 5 mM TCEP, pH 6) was thoroughly degassed prior to perfoming measurements to prevent oxidation of the catalytic cystein residue by dissolved oxygen. For the Ki-determination the substrate was employed at 10 µM = KM. All kinetic measurements were performad on a SFM-3000 stopped-flow instrument (Bio-Logic Science Instruments) and data were analyzed with GraphPad Prism v5.

[2] = system: diversity panel consisting of nearly 100 receptor binding and enzymatic assays; assay: Diversity panel of receptor binding and enzymatic assays; conditions: 10 µM concentration; data not shown
Mouse Cat-S = Mouse Cat-S (Mus musculus, UniProt O70370); assay: Enzymatic isoform-selectivity assay, mouse Cat-S; assay type: biochemical; conditions: read-out: apparent IC50, murine Cat-S
Method: as §1

Human Cat-F = molecular target: T1, Human Cat-F (Homo sapiens, UniProt Q9UBX1); assay: Enzymatic isoform-selectivity assay, Cat-F; assay type: biochemical
T1 sequence (Q9UBX1 271-484): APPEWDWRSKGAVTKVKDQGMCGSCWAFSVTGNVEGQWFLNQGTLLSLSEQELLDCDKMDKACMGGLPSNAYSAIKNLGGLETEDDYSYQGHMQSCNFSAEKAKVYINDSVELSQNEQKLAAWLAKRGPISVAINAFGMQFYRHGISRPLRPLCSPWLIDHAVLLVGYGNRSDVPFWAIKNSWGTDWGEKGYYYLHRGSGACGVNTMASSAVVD
Method: as §1

MRL-(Fas)lpr mice = assay: Experimental SLE and lupus nephritis, treatment week 11 to 19; assay type: in vivo
Method: Four-week-old female MRL-(Fas)lpr mice were purchased from Harlan Winkelmann (Borchen, Germany) and kept under pathogen-free conditions in a 12 hour light and dark cycle with free access to food and water. All animal experiments were performed in accordance with the European protection laws of animal welfare, and with approval by the local government authorities Regierung von Oberbayern (reference number: 55.2.1-54-2532.2-11-12). At 11 or 15 weeks of age only mice with proteinuria (Albustix, Bayer AG, Leverkusen, Germany) were randomized into five different groups (n = 10) receiving different medicated diets: Three groups were fed with chow mixed with either 3, 10 or 30 mg/kg/day RO5459072, another group’s chow was mixed with 100 mg/kg/day mycophenolate mofetil (MMF), and one group received a standard diet (vehicle). The dose of MMF was chosen according to several studies reporting strong efficacy on SLE and lupus nephritis in MRL-(Fas)lpr mice[24]–[26]. […] At the age of 19 weeks all mice were sacrificed by cervical dislocation. Blood and urine samples were collected at different time points as indicated. In other experiments 7 week old female MRL-(Fas)lpr mice were randomized into three groups (n = 3) to receive a single intravenous injection of 10 µg sterile recombinant Cat-S and one group receiving vehicle (100 µl sterile PBS). One of the Cat-S groups was pretreated with 30 mg/kg/day RO5459072 starting one week prior to Cat-S injection; another group was pretreated with a total of four daily intra-peritoneal injections of the PAR-2 inhibitor GB83 (10 mg/kg).
Kidney tissue samples were collected from all mice and fixed overnight in 4% buffered formalin. Subsequently the fixed tissue samples were embedded in paraffin and cut into 4 µm thick serial sections. Kidney paraffin sections were stained with periodic acid-Schiff (PAS) reaction using standardized protocols as described. Scoring of lupus nephritis activity and chronicity indices was performed according to human lupus nephritis, [43]. Methenamine silver staining was performed on paraffin embedded kidney sections and semiquantitatively scored form 0–3 by a blinded observer. For immunostaining the following primary antibodies were used: anti-mouse CD3 (Abcam, Cambridge, UK), complement C3c (Biobyt Ltd, Cambridge, UK), CD31 (Dianova GmbH, Hamburg, Germany), WT1 (Santa Cruz Biotechnology, Dallas, Texas) and nephrin (Acris Antibodies, San Diego, CA). The immunostaining for C3c and CD31 were analyzed using the ImageJ software by measuring positively stained area and dividing it by the total area of the glomerulus and reported as percentage of +ve area. Sections stained for WT1/nephrin and CD3 were evaluated by counting positive cells per glomerulus. All the morphometric analysis were carried out in a blinded fashion.
Urinary albumin/creatinine ratios were determined using the Mouse Albumin ELISA Quantitation set (Bethyl Laboratories, Montgomery, TX) and the Creatinine FS kit (DiaSys Diagnostic Systems, Holzheim, Germany)[44]. BUN levels were determined in plasma samples using a Urea FS kit (DiaSys Diagnostic Systems). Mouse IgM, IgG and its isotypes IgG1, IgG2a and IgG2b plasma levels were measured using ELISA Sets (Bethyl Laboratories) at a plasma dilution of 1:1,000 to 1:100,000. Double-stranded DNA IgG and IgM antibodies were quantified as described. Briefly, 96 well Nunc-Immuno plates (Thermo Fisher Scientific, Roskilde, Denmark) were coated with poly-L-lysine (1:1 diluted with PBS) and incubated for two hours. After washing the plates, the plates were coated with 1 µg/ml mouse tail dsDNA sparing the wells for standards, which were coated with anti-mIgG and anti-mIgM (Bethyl Laboratories). The standard curve was fixed from purified mIgG and mIgM (Bethyl Laboratories). The plasma samples were diluted 1:1,000 and added into the wells. After 1 h the assay was developed using HRP-labelled goat anti-mIgG and anti-mIgM and TMB substrate (BD Bioscience, San Diego, CA). […]

Human Cat-V, sequence (O60911 114-334): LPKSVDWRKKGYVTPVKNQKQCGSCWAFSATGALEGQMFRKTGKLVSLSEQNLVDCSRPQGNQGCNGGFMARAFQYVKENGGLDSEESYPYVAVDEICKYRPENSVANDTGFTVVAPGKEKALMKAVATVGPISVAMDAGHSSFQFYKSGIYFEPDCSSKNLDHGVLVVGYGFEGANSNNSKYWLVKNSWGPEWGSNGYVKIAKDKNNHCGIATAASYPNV

pIC50 (Human Cat-V): 6.15
inhibition on diversity panel [2]: ≤ 30%
pIC50 (Mouse Cat-S): 9.52
pIC50 (Human Cat-F): < 6.00
IC50, Human Cat-F (Human Cat-F): No sub-micro molar inhibition
SMILES: Cn1cc(-c2ccc(S(=O)(=O)[C@@H]3C[C@@H](C(=O)NC4(C#N)CC4)N(C(=O)C4(C(F)(F)F)CC4)C3)c(C(F)(F)F)c2)cn1 [RO5459072]
drug safety signals [1]: did not show any signals regarding drug safety
intrarenal mononuclear phagocyte and T cell subsets (MRL-(Fas)lpr mice; flow cytometry of kidneys): suppressed
reduction of urinary albumin/creatinine (A/C) ratio more than MMF (MRL-(Fas)lpr mice; highest dose of RO5459072 versus MMF): 2 log scales
plasma levels of antinuclear antibodies (MRL-(Fas)lpr mice; highest dose, week 19): suppressed
food intake or body weight between groups (MRL-(Fas)lpr mice; medicated diets, throughout the study period): no significant difference
intrarenal mRNA expression of IL-6, MCP-1/CCL2, RANTES/CCL5 and CXCL2 (MRL-(Fas)lpr mice; real time PCR, kidney): suppressed
intrarenal mRNA expression of TNF-α, IFN-γ and SDF-1/CXCL12 (MRL-(Fas)lpr mice; real time PCR, kidney): remained unaffected
blood urea nitrogen (BUN) over time (MRL-(Fas)lpr mice; week 11-19): prevented the progressive increase
podocyte number and proteinuria (MRL-(Fas)lpr mice; week 11-19): protective effect
dsDNA IgM (MRL-(Fas)lpr mice; week 11-19, ELISA): did not affect
total levels of plasma IgM (MRL-(Fas)lpr mice; week 11-19, ELISA): did not affect
spleen plasma cells and plasma IgG levels and IgG isotypes (MRL-(Fas)lpr mice; week 11-19, RO5459072 3, 10, 30 mg/kg/day, MMF 100 mg/kg/day): dose-dependently suppressed
plasma dsDNA IgG levels (IgG autoantibodies) (MRL-(Fas)lpr mice; week 11-19, RO5459072 highest dose, MMF 100 mg/kg/day, ELISA): suppress plasma dsDNA IgG levels below baseline
spleen CD11c+/CD11b+/MHCII+ antigen-presenting cells (MRL-(Fas)lpr mice; week 11-19, flow cytometry): suppressed
spleen CD11c+/F4/80+/MHCII+ cells (MRL-(Fas)lpr mice; week 11-19, flow cytometry): suppressed
complement C3 deposits, diffuse proliferative glomerular lesions and glomerulosclerosis (MRL-(Fas)lpr mice; week 19): less
integrity of the glomerular vasculature (CD31 staining) (MRL-(Fas)lpr mice; week 19): improved
activity and chronicity scores of nephritis (MRL-(Fas)lpr mice; week 19, PAS sections): dose-dependently reduced
